Assay results as given in patent publication US5561042A, “Diamine platinum naphthalimide complexes as antitumor agents” (Cancer Therapy and Research Center, priority 1995, dated 1996).
“Also recorded” adds a separate entry of the source.

Assays:
[1] = system: SV40 DNA (Form I, negatively supercoiled); test: SV40 DNA unwinding / mobility by agarose gel electrophoresis; format: binding; conditions: for effect on SV40 DNA conformation (in words): agarose gel electrophoresis, 37° C.
From the text: The model used in this study, negatively supercoiled, closed circular, plasmid SV40 DNA (Form I), undergoes several stages of drug-induced unwinding that are monitored by agarose electrophoresis.
Central to the understanding of compound 21 action was the ability to assess whether the drug was bound irreversibly (presumably covalently) or reversibly. The system used to extract the reversibly bound drug went through several phases of development. The classic phenol/chloroform mixture cannot completely extract all of the drug. However, the phenol/chloroform mixture effectively extracts the drug in the presence of at least 0.1M NaCl.
Three different systems, A, B and D were used to probe the mode of interaction of compound 21 with DNA.
System A: Compound 21 and DNA in TE buffer (10 mM Tris-HCl, pH 7.5 and 1 mM EDTA) without phenol/chloroform.
System B: Compound 21 and DNA in TE buffer with 0.5M NaCl without phenol/chloroform extraction.
System D: Compound 21 and DNA in TE buffer with 0.5M NaCl followed by phenol/chloroform extraction.
In general, SV40 DNA (90% Form I, negatively supercoiled, and 10% Form II, nicked, Gibco BRL) was incubated with graded concentrations of compound 21 at 37° C. for the indicated time periods in the appropriate system. The isolated DNA was then separated by agarose gel electrophoresis (1% Seakem agarose in 1× TAE buffer) in TAE buffer with 80 volts for 2 hours. Gels were stained with ethidium bromide (0.5 μg/ml) for 15 minutes, washed and then recorded with polaroid film while being irradiated with a UV transilluminator (λ=254 nm).

[2] = system: HT29 Human Colon Carcinoma cell line; test: In vitro growth inhibition (MTT), HT29 colon carcinoma; format: cell-based; conditions: 6 days
From the text: (§1) P388 murine leukemic cell line was obtained from the DCT Tumor Repository (National Cancer Institute, Frederick Cancer Research and Development, Frederick Md. 21702). HT29 Human Colon Carcinoma cell line was obtained from the American Type Culture Collection (12301 Parklawn Drive, Rockville, Md. 20852). B16 Melanoma cell line was obtained from DuPont Merck Pharmaceutical Company (Glenolden, Pa. 19036). MCF-7 Human Breast Carcinoma cell line was a gift from Dr. K. Osborne (Department of Medicine, The University of Texas Health Science Center at San Antonio, San Antonio, Tex. 78284). All cell lines were incubated at 37° C. in a humidified atmosphere of 5% CO2 -95% air. Murine B16 melanoma cell line was grown in RPMI 1640 medium supplemented with 10% heat-inactivated fetal bovine serum, 2 mM L-glutamine, 50 units/ml penicillin, 50 μg/ml streptomycin, 25 μg/ml gentamycin, 0.75% sodium bicarbonate, 10 mM HEPES buffer (pH 7.4), and 0.06 mg/ml AntiPPLO. Murine P388 leukemic and the human HT-29 colon adenocarcinoma cell lines were maintained in RPMI 1640 medium supplemented with 10% heat-inactivated fetal bovine serum. MCF-7M human breast adenocarcinoma was maintained in IMEM medium supplemented with 5% non heat-inactivated fetal bovine serum and 1 nM insulin.
(§2) Exponentially growing cells (1-2×10^3 cells, unless specified otherwise) in 0.1 ml medium were seeded on day 0 in a 96-well microtiter plate. On day 1, 0.1 ml aliquots of medium containing graded concentrations of test compounds were added in duplicate to the cell plates. After incubation at 37° C. in a humidified incubator for 3 days (P388, B16) or 6 days (HT-29, MCF-7M), the plates were centrifuged briefly and 100 μl of the growth medium was removed. Cell cultures were incubated with 50 μl of 3-(4,5-dimethylthiazol-2-yl)-2,5-diphenyl-tetrazolium bromide [MTT, 1 mg/ml in Dulbecco's phosphate buffered saline (PBS)] for 4 hr at 37° C. The resulting purple formazan precipitate was solubilized with 200 μl of 0.04N HCl in isopropyl alcohol. Absorbance was monitored in a BioRad Model 3550 Microplate Reader at a test wavelength of 570 nm and a reference wavelength of 630 nm. The absorbance was transferred to a PC 486 computer. The IC50 values were determined by a computer program (EZ-ED50) that fit all of the data to the following four-parameterlogistic equation:
(§3) Y=((Am -Ao)/(1+(X/IC50)^n))+Ao
(§4) where Am is the absorbance of control cells, Ao is the absorbance of cells in the presence of highest agent concentration, Y is the observed absorbance, X is the agent concentration, IC50 is the concentration of agent that inhibits the cell growth by 50% of control cells (based on the absorbance) and n is the slope of the curve.

[3] = system: Murine B16 melanoma cell line; test: In vitro growth inhibition (MTT), B16 melanoma; format: cell-based; conditions: MTT, 3 days
From the text: as §1, §2, §3, §4

[4] = system: P388 murine leukemic cell line; test: In vitro growth inhibition (MTT), P388 leukemia; format: cell-based; conditions: 3 days
From the text: as §1, §2, §3, §4

[5] = system: EcoRI and Taq1 digested SV40 DNA; test: DNA crosslinking, EcoRI/Taq I digested SV40 DNA, alkaline agarose gel; format: binding; conditions: 0.5 and 1 μM, 37° C., 17 hours
Procedure: Isolated SV40 DNA (Gibco BRL) was digested with EcoRI (3 units/μg DNA) (Promega #R6011) at 37° C. for two hours, and concentrated through a spin column (Microcon 50, Amicon, Inc.). The EcoRI digested SV40 DNA was then digested with Taq I (3 units/μg DNA) (Promega #6151) at 65° C. for an additional 2 hours. After digestion, DNA was extracted once with phenol/chloroform/isoamyl alcohol (25:24:1), and once with chloroform/isoamyl alcohol (24:1). The digested DNA was then labelled on the 5' end with ^32 P using the DuPont/NEN T4 polynucleotide kinase 5' end labelling system and […]. Labelled DNA was loaded onto a pre-equilibrated Sephadex 25 spin purification column (Quick-spin, Boehringer-Mannheim Biochemicals) and eluted into 400 μl TE (20 mM Tris HCl, 1 mM EDTA). Eluted DNA was ethanol precipitated overnight at -20° C. and spun in an Eppendorf microcentrifuge for 1 hour at 4° C., 14,000 rpm.
Precipitated DNA was suspended in TE (20 mM Tris HCl, pH 8, 1 mM EDTA) at approximately 0.1 μg/μl and incubated at 37° C. for 17 hours in a 50 μl volume with 0, 0.5, 1.0, 1.5 or 2 μM compound 21. Following drug treatment, DNA was again ethanol precipitated, spun down, dried briefly and suspended in 20 μl water. […]

Question: What does the source list for “8-(3'-nitro-1',8'-naphthalimide)-3,6-diazaoctylamine dichloroplatinum(II) [Compound 21]”?
Answer: effect on SV40 DNA conformation (in words) [1]: potent distortion of DNA conformation; also recorded: gradually converts the negatively supercoiled SV40 DNA (Form I) to relaxed Form I; effect on SV40 DNA conformation (in words) ([1]; listed as compound 21): observed instantly; also recorded: without incubation, the effect of compound 21 on DNA can be completely reversed using System D; also recorded: more of the mobility shift is retained, with an actual increase in drug effect at the full 8 hours; also recorded: no change in DNA mobility shift is observed even under system D at 8 hours; also recorded: can be returned to normal mobility after treatment with thiourea; also recorded: reversal of compound 21 on SV40 DNA by removal of compound 21 with phenol/chloroform extraction in 0.5M NaCl; also recorded: no change in mobility after phenol/chloroform, 0.5M NaCl extraction; decrease of the concentration at which form I and II comigrate ([1]; from time zero to 8 hours): 2 fold; time to plateau of irreversible effect on DNA conformation ([1]; time course studies): 6 to 8 h; IC50 [2]: 129 nM; IC50 [3]: 385 nM; IC50 [4]: 302 nM; formation of DNA cross links (in words) [5]: formation of higher molecular weight DNA, around 4.6 and 5.8 Kb; also recorded: cross-linked DNA of 4.6-5.8 Kb
